# From PubChem BioAssay (NCI)
# Values joined by “and” are separate entries in the source; they are usually repeats but may differ in a detail not shown here. Equal entries are not always repeated.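 All cell lines were grown in 96-well plates and treated with compound for 48 hours. Abbreviation: GI50, concentration required for 50% inhibition of growth. TGI: total growth inhibition.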
# Assays:
# Assay in all cases: NCI-60 cell line screen, 48 h
# SK-OV-3 ovarian = system: SK-OV-3 ovarian
# CAKI-1 renal = system: CAKI-1 renal
# OVCAR-4 ovarian = system: OVCAR-4 ovarian
# KM12 colon = system: KM12 colon
# A498 renal = system: A498 renal
# NCI-H522 lung = system: NCI-H522 lung
# COLO 205 colon = system: COLO 205 colon
# UACC-257 melanoma = system: UACC-257 melanoma
# IGROV1 ovarian = system: IGROV1 ovarian
# LOX IMVI melanoma = system: LOX IMVI melanoma
SMILES,GI50 (SK-OV-3 ovarian) [µM],TGI (SK-OV-3 ovarian),GI50 (CAKI-1 renal),TGI (CAKI-1 renal),GI50 (OVCAR-4 ovarian) [µM],TGI (OVCAR-4 ovarian),GI50 (KM12 colon) [µM],TGI (KM12 colon),GI50 (A498 renal) [µM],TGI (A498 renal),GI50 (NCI-H522 lung) [µM],TGI (NCI-H522 lung),GI50 (COLO 205 colon) [µM],TGI (COLO 205 colon),GI50 (UACC-257 melanoma) [µM],TGI (UACC-257 melanoma),GI50 (IGROV1 ovarian) [µM],TGI (IGROV1 ovarian),GI50 (LOX IMVI melanoma) [µM],TGI (LOX IMVI melanoma)
O=CC(Br)C(Br)c1ccccc1 (stereo not drawn),16.6,30.3 µM,2.6 µM,6.98 µM,1.69,3.14 µM,12.6,26 µM,13.9,29.5 µM,1.72,3.56 µM,2.17,4.55 µM,1.9,4.56 µM,11,26 µM,0.665,1.83 µM
Cc1ccc(C(=O)/C(=C\c2ccc([N+](=O)[O-])cc2)S(=O)Cc2ccc(F)cc2)cc1 (stereo not drawn),10.8,23.2 µM,1.77 µM,3.84 µM,1.73,3.54 µM,2.12,4.78 µM,2.48,6.04 µM,1.55,3.01 µM,1.92,3.76 µM,1.93,3.69 µM,1.5,3.05 µM,1.46,2.95 µM
COc1ccc([I+]c2ccccc2)cc1,50.2,> 100 µM,12.5 µM,> 100 µM,1.34,> 100 µM,4.27,> 100 µM,1.9,> 93.2 µM,24.5,> 100 µM,5.95,> 100 µM,8.81,> 100 µM,8.99,> 100 µM,3.47,> 100 µM
C[n+]1c2ccccc2c(Nc2ccc(NS(=O)(=O)CCCCN=C(N)N)cc2)c2ccc(N)cc21,2.77,> 100 µM,10.1 µM,> 100 µM,5.4,> 100 µM,3.5,> 79.1 µM,0.32,31.4 µM,2.03,25.6 µM,1.67,> 100 µM,21.7,> 95.6 µM,2.92,> 100 µM,1.82,> 100 µM
O=C(O)c1ccc2c3c(ncnc13)-c1ccccc1C2=O,> 89.5,> 100 µM,> 81.1 µM,> 100 µM,> 100,> 100 µM,7,> 100 µM,1.96,10.9 µM,13.8,> 100 µM,3.25,16.7 µM,8.6,> 100 µM,43.9,> 100 µM,1.74,18.5 µM
CC(C)[NH-].CC(C)[NH-].O.O.[Cl][Pt+2][Cl],28.6,92.6 µM,31.3 µM,124 µM,28.7,106 µM,96.1,251 µM,150,358 µM,20.4,74.2 µM,30.1,98.7 µM,87.4,279 µM,33.4,132 µM,18.3,51.4 µM
NC(=O)C(=Cc1ccc(CP(=O)(O)O)cc1)C(N)=O,,> 100 µM,,> 100 µM,,> 100 µM,,> 100 µM,,> 100 µM,,> 100 µM,,> 100 µM,,> 100 µM,,> 100 µM,,> 100 µM
COc1ccc2c(c1)c1nc3cc(C)c(C)cc3nc1n2CCN(C)C,1.5,3.48 µM,0.632 µM,2.1 µM,1.03,2.43 µM,0.827,2.37 µM,1.25,2.58 µM,0.582,2.8 µM,0.42,1.88 µM,1.26,3.17 µM,0.464,1.97 µM,0.375,1.6 µM
Clc1ccc(C(c2ccc(Cl)cc2)N2CCNCC2)cc1,,> 44.3 µM,,17.4 µM,,6.95 µM,,3.63 µM,,4.2 µM,,3.46 µM,,4.28 µM,,4.62 µM,,3.17 µM,,4.53 µM
COC1=C2C[C@H](O)C(C)C[C@@]2(OC)OC1=O (stereo partly drawn),,> 100 µM,,> 100 µM,,> 100 µM,,> 100 µM,,> 100 µM,,> 100 µM,,> 100 µM,,> 100 µM,,> 100 µM,,> 100 µM
Cc1cccc(Cl)c1NC(=O)c1cnc(Nc2cc(N3CCOCC3)cc(N3CCOCC3)c2)s1,0.0178,1.6 µM,0.00467 µM,0.0246 µM,> 4.05,> 10 µM,> 6.22,> 10 µM,0.0248,0.473 µM,0.0307,> 5.79 µM,0.122,> 8.09 µM,> 7.93,> 10 µM,0.00355,0.0621 µM,0.012,0.083 µM
CN[C@@H]1C[C@H]2O[C@@](C)([C@@H]1OC)n1c3ccccc3c3c4c(c5c6ccccc6n2c5c31)C(=O)N[C@H]4O,0.0337,0.298 µM,0.00463 µM,0.0305 µM,0.125,> 10 µM,0.0395,1.07 µM,0.0053,0.0203 µM,0.103,0.878 µM,0.0311,0.267 µM,0.0794,2.57 µM,0.0188,0.102 µM,,1.09 µM
CCCCCCCC(=O)OCC1OC(n2cc(F)c(=O)[nH]c2=O)C(NC(=O)OCc2ccccc2)C(O)C1O (stereo not drawn),,> 100 µM,,> 100 µM,,> 100 µM,,> 100 µM,,> 100 µM,,92 µM,,> 100 µM,,> 100 µM,,> 100 µM,,> 100 µM
CCOc1ccccc1N1C(=O)C(=O)C(c2nc3ccccc3o2)/C(=N\N)C1=O (stereo not drawn),,> 100 µM,,> 100 µM,,> 100 µM,,> 100 µM,,> 100 µM,,> 100 µM,,> 100 µM,,> 100 µM,,> 100 µM,,> 100 µM
C[C@@H](NC(=O)[C@@H](CC(=O)N1CCC(N2CCCCC2)CC1)N1C(=O)[C@@H](N2C(=O)OC[C@@H]2c2ccccc2)[C@H]1/C=C/c1cccc(Cl)c1)c1ccccc1,12.9,27.5 µM,1.89 µM,4.17 µM,10.5,24.8 µM,2.72,9.63 µM,13.2,27.7 µM,1.79,4.14 µM,1.8,4.24 µM,1.93,3.84 µM,4.62,19.2 µM,1.46,3.06 µM
COc1cc(F)cc([C@@H](CO)NC(=O)[C@@H](C)N2Cc3ccc(-c4nc(NC5CCOCC5)ncc4Cl)cc3C2=O)c1,3.25,> 100 µM,1.93 µM,69.1 µM,7.91,> 91.6 µM,0.0988,37.4 µM,0.0878,5.86 µM,13.4,60.4 µM,< 0.01,2.37 µM,< 0.01,0.0367 µM,0.0409,35.6 µM,< 0.0181,11.8 µM
O=C(NCCCCCCNC(=O)n1cc(F)c(=O)[nH]c1=O)NCCCOCCOCCOCCOCCOCCOCCOCCOCCOCCOCCOCCOCCOCCOCCOCCOCCOCCOCCOCCOCCOCCCNC(=O)C(O)C(O)C(OC1OC(CO)C(O)C(O)C1O)C(O)CO (stereo not drawn),,> 100 µM,,> 100 µM,,> 100 µM,,> 100 µM,,> 100 µM,,> 100 µM,,> 100 µM,,> 100 µM,,> 100 µM,,> 100 µM
OC(C1CO1)C(O)C1CO1 (stereo not drawn),5.68,95.2 µM and 186 µM,15 µM and 5.46 µM,91.5 µM and 158 µM,134,150 µM and 299 µM,,112 µM and 254 µM,116,134 µM and 263 µM,11.3,94.8 µM and 175 µM,124,127 µM and 285 µM,56.1,141 µM and 244 µM,129,149 µM and 327 µM,12,78.3 µM and 233 µM
O=C1C(Cl)=C(Nc2cccc(O)c2)C(=O)N1Cc1ccc(Cl)cc1,3.7,19.9 µM,1.74 µM,10.1 µM,11.2,> 100 µM,2.11,11.3 µM,5,21.8 µM,3.18,21.7 µM,3.38,20.8 µM,8.18,25 µM,3.93,40 µM,1.47,6.34 µM
CCOC(=O)[C@H]1CSC[C@@H](C(=O)OC)N1,,> 100 µM,,> 100 µM,,> 100 µM,,> 100 µM,,> 100 µM,,> 100 µM,,> 100 µM,,> 100 µM,,> 100 µM,,> 100 µM
